# Biological target: T1, POsterior Segregation (Caenorhabditis elegans, UniProt G5EF15)
# T1 sequence (G5EF15 whole entry): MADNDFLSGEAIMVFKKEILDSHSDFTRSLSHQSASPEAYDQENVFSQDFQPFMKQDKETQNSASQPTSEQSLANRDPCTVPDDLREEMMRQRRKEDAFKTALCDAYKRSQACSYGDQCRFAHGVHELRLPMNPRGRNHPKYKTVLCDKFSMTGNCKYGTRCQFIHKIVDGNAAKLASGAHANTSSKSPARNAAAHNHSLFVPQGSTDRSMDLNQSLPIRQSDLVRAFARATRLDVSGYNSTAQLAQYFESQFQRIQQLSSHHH
# Assay: disruptors of C. elegans POS-1 RNA interaction – biochemical, fluorescence polarization, dose response (AID 1964)
row,SMILES,EC50
1,"Cc1nnc(N2C(=O)C(=O)C(C(=O)c3ccco3)C2c2cccc3ccccc23)s1 (stereo not drawn) [3-(furan-2-carbonyl)-4-hydroxy-1-(5-methyl-1,3,4-thiadiazol-2-yl)-2-naphthalen-1-yl-2H-pyrrol-5-one]",> 300 µM
2,"CSc1nnc(N2C(=O)C(=O)C(C(=O)c3ccco3)C2c2ccccc2)s1 (stereo not drawn) [3-(furan-2-carbonyl)-4-hydroxy-1-(5-methylsulfanyl-1,3,4-thiadiazol-2-yl)-2-phenyl-2H-pyrrol-5-one]",> 300 µM
3,O=C1C(=O)N(c2ncccn2)C(c2cccs2)C1C(=O)c1ccco1 (stereo not drawn) [3-(furan-2-carbonyl)-4-hydroxy-1-pyrimidin-2-yl-2-thiophen-2-yl-2H-pyrrol-5-one],39.9 µM
4,"COc1ccc(C2C(C(=O)c3ccco3)C(=O)C(=O)N2c2nnc(C)s2)cc1 (stereo not drawn) [3-(furan-2-carbonyl)-4-hydroxy-2-(4-methoxyphenyl)-1-(5-methyl-1,3,4-thiadiazol-2-yl)-2H-pyrrol-5-one]",109 µM
5,"Cc1ccc(C2C(C(=O)c3ccco3)C(=O)C(=O)N2c2nnc(C)s2)cc1 (stereo not drawn) [3-(furan-2-carbonyl)-4-hydroxy-2-(4-methylphenyl)-1-(5-methyl-1,3,4-thiadiazol-2-yl)-2H-pyrrol-5-one]",> 300 µM
6,"CSc1ccc(C2C(C(=O)c3ccco3)C(=O)C(=O)N2c2nnc(SC)s2)cc1 (stereo not drawn) [3-(furan-2-carbonyl)-4-hydroxy-2-(4-methylsulfanylphenyl)-1-(5-methylsulfanyl-1,3,4-thiadiazol-2-yl)-2H-pyrrol-5-one]",6.79 µM
7,O=C1Nc2ccccc2C1=NNc1ccccc1 [3-(phenylhydrazo)-2-indolone],7.37 µM
8,"N#CC1C(=N)C2=C(N3CCCCC3)CCCC2C1(C#N)C#N (stereo not drawn) [3-Amino-4-piperidin-1-yl-5,6,7,7a-tetrahydro-indene-1,1,2-tricarbonitrile]",89.4 µM
9,"COc1ccc(N2C(=O)C(=Nc3ccccc3O)C(Cl)C2=O)cc1 (stereo not drawn) [3-Chloro-4-(2-hydroxy-phenylamino)-1-(4-methoxy-phenyl)-pyrrole-2,5-dione]",> 300 µM
10,"O=C1C(=Nc2ccccc2O)C(Cl)C(=O)N1c1ccccc1 (stereo not drawn) [3-Chloro-4-(2-hydroxy-phenylamino)-1-phenyl-pyrrole-2,5-dione]",> 300 µM
11,O=c1c2ccccc2nc(N=NCc2ccc(O)cc2)n1O [3-Hydroxy-2-{N'-[1-(4-hydroxy-phenyl)-meth-(E)-ylidene]-hydrazino}-3H-quinazolin-4-one],> 300 µM
12,"Cc1cc(CN=Nc2ccc([N+](=O)[O-])cn2)c(C)n1-c1cccc(C(=O)O)c1 [3-[2,5-dimethyl-3-[[(5-nitro-2-pyridinyl)hydrazinylidene]methyl]-1-pyrrolyl]benzoic acid]",> 300 µM
13,O=NCc1cccn1-c1cccc(C(=O)O)c1 [3-[2-(hydroximinomethyl)pyrrol-1-yl]benzoic acid],> 300 µM
14,Cc1[nH]n(C(N)=S)c(=O)c1N=Nc1cccc(C(=O)O)c1 [3-[(1-carbamothioyl-3-methyl-5-oxo-4H-pyrazol-4-yl)diazenyl]benzoic acid],35.1 µM
15,"O=[N+]([O-])c1cc([CH+][N-]n2c(O)csc2=S)ccc1Cl [3-[(4-chloranyl-3-nitro-phenyl)methylideneamino]-2-sulfanylidene-1,3-thiazolidin-4-one]",18.6 µM
16,"Oc1ccc(C=Nn2c(O)csc2=S)c(O)c1O [3-[[(E)-[2,3-bis(oxidanyl)-4-oxidanylidene-cyclohexa-2,5-dien-1-ylidene]methyl]amino]-2-sulfanylidene-1,3-thiazolidin-4-one]",5.17 µM
17,N#CC1C(=N)Oc2ccc3ccc(O)cc3c2C1c1ccsc1 (stereo not drawn) [3-amino-9-hydroxy-1-(3-thienyl)-1H-benzo[f]chromene-2-carbonitrile],76.1 µM

row,SMILES,EC50
1,CCCCOc1c(Br)cc(CN=O)cc1OCC [3-bromo-4-butoxy-5-ethoxy-benzaldoxime],> 300 µM
2,"COc1ccccc1N1C(=O)C(=Nc2ccccc2O)C(Cl)C1=O (stereo not drawn) [3-chloranyl-4-[(2-hydroxyphenyl)amino]-1-(2-methoxyphenyl)pyrrole-2,5-dione]",34.7 µM
3,O=C1C=C(NNC(=O)c2sc3ccccc3c2Cl)CCC1 [3-chloranyl-N-[(3-oxidanylidenecyclohexylidene)amino]-1-benzothiophene-2-carboxamide],22 µM
4,"CC(C)c1nnc(N2C(=O)C(=O)C(C(=O)c3cccs3)C2c2ccccc2)s1 (stereo not drawn) [3-hydroxy-1-(5-isopropyl-1,3,4-thiadiazol-2-yl)-5-phenyl-4-(2-thenoyl)-3-pyrrolin-2-one]",33.9 µM
5,Cc1[nH]n(C(N)=S)c(=O)c1N=Nc1ccc(S(N)(=O)=O)cc1 [3-methyl-5-oxidanylidene-4-[(4-sulfamoylphenyl)diazenyl]-4H-pyrazole-1-carbothioamide],19.7 µM
6,"O=C1CC(=O)c2c(O)cc(O)c(O)c2C1=O [4,5,7,8-tetrahydroxy-1,2-naphthoquinone]",1.07 µM
7,"COc1cc(C2C3=C(CCCC3=O)OC(=N)C2C#N)cc(OC)c1OC(=O)N1CCOCC1 (stereo not drawn) [4-(2-amino-3-cyano-5-oxo-5,6,7,8-tetrahydro-4H-chromen-4-yl)-2,6-dimethoxyphenyl morpholine-4-carboxylate]",> 300 µM
8,"COc1cc(C2C3=C(CCCC3=O)OC(=N)C2C#N)ccc1OC(=O)N1CCOCC1 (stereo not drawn) [4-(2-amino-3-cyano-5-oxo-5,6,7,8-tetrahydro-4H-chromen-4-yl)-2-methoxyphenyl morpholine-4-carboxylate]",> 300 µM
9,"N#CC1C(=N)OC2=C(C(=O)CCC2)C1c1ccc(OC(=O)N2CCOCC2)cc1 (stereo not drawn) [4-(2-amino-3-cyano-5-oxo-5,6,7,8-tetrahydro-4H-chromen-4-yl)phenyl morpholine-4-carboxylate]",> 300 µM
10,"COc1cc(C2NC(=S)N=C(C)C2C(=O)OC(C)C)ccc1OC(C)C (stereo not drawn) [4-(3-methoxy-4-propan-2-yloxyphenyl)-6-methyl-2-sulfanylidene-3,4-dihydro-1H-pyrimidine-5-carboxylic acid propan-2-yl ester]",> 300 µM
11,O=C(O)c1ccc(NN=CC2=C(N3CCOCC3)C(=Cc3ccccc3)CC2)cc1 [4-[2-[[(3Z)-2-(4-morpholinyl)-3-(phenylmethylene)-1-cyclopentenyl]methylidene]hydrazinyl]benzoic acid],176 µM
12,"CC(=O)C1C(c2ccccc2)=NC(=O)NC1c1ccc(O)c(O)c1 (stereo not drawn) [4-[3,4-bis(oxidanyl)phenyl]-5-ethanoyl-6-phenyl-3,4-dihydro-1H-pyrimidin-2-one]",> 300 µM
13,Cc1ccc(-c2c(CCC(C)N=O)oc3ccc(Cl)cc23)o1 (stereo not drawn) [4-[5-chloro-3-(5-methyl-2-furanyl)-2-benzofuranyl]-2-butanone oxime],> 300 µM
14,"Cc1nnc(SC(=Cc2ccc(OCc3ccc(C(=O)O)cc3)cc2)C(=O)O)[nH]1 [4-[[4-[(E)-2-[(5-methyl-1H-1,2,4-triazol-3-yl)sulfanyl]-3-oxidanyl-3-oxidanylidene-prop-1-enyl]phenoxy]methyl]benzoic acid]",17.8 µM
15,"COc1ccc(C(=O)Nc2nnc(CC(=O)NN=Cc3ccc(O)cc3O)s2)cc1 [4-methoxy-N-[5-[2-oxidanylidene-2-[2-[(E)-(2-oxidanyl-4-oxidanylidene-cyclohexa-2,5-dien-1-ylidene)methyl]hydrazinyl]ethyl]-1,3,4-thiadiazol-2-yl]benzamide]",125 µM
16,"CC1(C)CC(=O)C2=C(C1)OC(=N)C(C#N)C2c1ccc(OC(=O)N2CCOCC2)cc1 (stereo not drawn) [4-morpholinecarboxylic acid [4-(2-amino-3-cyano-7,7-dimethyl-5-oxo-6,8-dihydro-4H-1-benzopyran-4-yl)phenyl] ester]",> 300 µM

# Reference: BindingDB's records for doi:10.7270/Q28G8J4C (Broad Institute, 2009)
